Each structure is given as a SMILES string.

This is an account of results in patent US20110300529A1, “DETECTION OF IFI16 IN BODY FLUIDS” (NoToPharm srl, priority 2008, published 2011).

Assay [1] relates to Human Keratinocyte monolayers. Briefly: Western blot analysis of extracellular IFI16 in supernatants of cells undergoing cell death. In kind it is cell-based. The settings on record: 16 h after treatment, TCA-concentrated supernatant, immunoblotting. On the procedure:
(§1) Human Keratinocyte monolayers were UVB-irradiated at different doses (200, 400, and 800 J/m^2 respectively), treated with 2 μM Doxorubicin (Doxo) and 80 μM Etoposide (VP-16), or left untreated. At 16 h after treatment, the supernatant was collected and separated for determination of extracellular IFI16, while the remaining cells were lysed for determination of the intracellular cleaved form of PARP (determination of undergoing cell death). Collected supernatants were concentrated with TCA 25% as described in Example 4. […]
Supernatants of human primary keratinocytes cultured in serum-free medium (Epilife, Cascade Biologics, USA) were subjected to precipitation with trichloroacetic acid (TCA). Precipitated protein were analyzed by immunoblotting. […]
(§2) Migrated proteins were transferred to nitrocellulose. The membranes were blocked in TBS/0.05% Tween20/5% BSA and extracellular IFI16 was detected by incubation of the membrane bearing surnatants samples with anti-IFI16 mouse monoclonal antibody (clone 1G7, Santa Cruz, Calif., USA). The intracellular cleaved form of PARP was detected by incubation of the membrane bearing cell extract samples by rabbit anti-PARP cleaved antibody (GTX24830, GeneTex, CA, USA). […]
A general note: Immunoblotting shows a protein as a band on a membrane.

Assay [2] has as its system Human Keratinocyte monolayers. Briefly: Intracellular cleaved form of PARP (determination of undergoing cell death) by immunoblotting. Format: cell-based. The note with it: 16 h after treatment, cell lysate. On the procedure:
as §1, with “4. An equal amount of total cellular protein per sample and an equal volume of concentrated supernatants were fractionated on SDS-PAGE (7.5% of NEXT GEL Amresco, OH, USA) and transferred to a nitrocellulose membrane (Biorad, CA, USA).” for “4.”
As control of the undergoing cell death induced by the treatment with UVB-irradiation and Doxo or VP-16, also the intracellular PARP cleavage was determined in the exposed keratinocyte. […]
as §2

Turning to `COc1cccc2c1C(=O)c1c(O)c3c(c(O)c1C2=O)C[C@@](O)(C(=O)CO)C[C@@H]3O[C@H]1C[C@H](N)[C@H](O)[C@H](C)O1` [Doxorubicin], in assay [1] (2 μM Doxorubicin), the “presence of extracellular IFI16 in supernatants” value is on record as “not observed”. Further, the “cell death as demonstrated by PARP cleavage” value in assay [2] (2 μM Doxorubicin) is reported as “chemically-induced cell death”.
Turning to `COc1cc([C@@H]2c3cc4c(cc3[C@@H](O[C@@H]3O[C@@H]5CO[C@@H](C)O[C@H]5[C@H](O)[C@H]3O)[C@H]3COC(=O)[C@H]23)OCO4)cc(OC)c1O` [Etoposide], the “presence of extracellular IFI16 in supernatants” value in assay [1] (80 μM Etoposide) is “not observed”. Also, the “cell death as demonstrated by PARP cleavage” value in assay [2] (80 μM Etoposide) is “chemically-induced cell death”.
